Laboratory results: patent US20040220220A1, “Method for treating inflammatory bowel disease” (priority 2001, published 2004)
Values joined by “and” are separate entries in the source; they are usually repeats but may differ in a detail not shown here. Equal entries are not always repeated.

Assays:
Human eosinophils [1] = test: IL-5 stimulated eosinophil survival by flow cytometry; format: cell-based; conditions: 100 pg/ml IL-5, four days, compared with dexamethasone
Protocol: (§1) Human eosinophils were isolated from atopic and non-atopic donors using density centrifugation and CD16-magnetic bead negative selection. Eosinophil purity was always>93%.
Flow cytometry was performed on a Becton Dickenson FACScan. Data was analyzed using CellQuest software. For cell surface marker determination, specific antibodies directly conjugated with the fluorescent indicator, phycoerythrin (PE) were utilized.
The general procedure described hereinabove was followed. Eosinophils were incubated with 100 pg/ml IL-5 with or without dexamethasone or HCQ. After four days, eosinophil viability was measured by flow cytometry. The results are depicted in FIG. 3.

[2] = lupus erythematosus and rheumatoid arthritis; cited from earlier work
[3] = asthma, oral HCQ; cited from earlier work
Human eosinophils [4] = test: IL-5 stimulated eosinophil degranulation, EDN release by DARIA; format: cell-based
From the text: FIG. 2 graphically depicts the effect of HCQ on IL-5 stimulated eosinophil degranulation as measured by release of eosinophil-derived neurotoxin. In this figure, EDN refers to eosinophil-derived neurotoxin.
as §1
The general procedure described hereinabove and Example 1 was followed. Supernatants from superoxide assay samples were analyzed for EDN by Double-Antibody Radioimmunoassay (DARIA). The results are depicted in FIG. 2.

Human eosinophils [5] = test: Eosinophil extracellular superoxide production (cytochrome c); format: cell-based; conditions: 1 hr pretreatment at 37° C.; IL-5 or PAF stimulus
Protocol: as §1
Statistical analyses were performed using the Student's paired t-test; significance defined as p value<0.05 compared to “nil” or 0.0 microM HCQ.
The general procedure described hereinabove was followed. Eosinophils were pretreated with HCQ for 1 hr at 37° C. and then stimulated as described in FIG. 1 in 96-well plates (50,000 cells/well). Extracellular superoxide was detected using cytochrome c and a 96-well plate reader.

[6] = Single-dose intravenous HCQ pharmacokinetics in dogs; format: in vivo, Beagle dogs; conditions: for AUC(0-inf) / Cmax / AUC(0-t) / half-life / Tmax / Vd / clearance: both sexes, beagle, dog, whole blood; for AUC(0-inf) / Cmax / AUC(0-t) / Tmax / Vd / clearance: single day; for AUC(0-t): read-out: AUC0-23; for half-life: 2-compartment model, read-out: Apparent terminal t1/2 (converted)
Protocol: Two Beagle dogs per dose group (one M: one F) received hydroxychloroquine sulfate, USP as an intravenous bolus infusion over 30 minutes.
Following the single injection, blood samples were drawn at one, two, three, five, six, seven, eight, 12, 18, 24, 36, 120, 192, 264, 360, 528, 696, 864 and 1,032 hours.

[7] = Single-dose intravenous HCQ pharmacokinetics in rats; format: in vivo; conditions: for Tmax / Vd / clearance / half-life / AUC(0-inf) / Cmax / AUC(0-t): both sexes, rat, whole blood; for Tmax / Vd / clearance / AUC(0-inf) / Cmax / AUC(0-t): single day; for half-life: 2-compartment model, read-out: Apparent Terminal t1/2 (converted); for AUC(0-t): read-out: AUC0-23
Protocol: Twelve rats per dose group (six M: six F) received hydroxychloroquine sulfate, USP as an intravenous bolus injected over 30 minutes.
Following the single injection, blood samples were drawn from rat pairs at one, three, six, 12, 24, 36, 48, 192, 360, and 1,032 hours.

[8] = test system: neutrophil, macrophages, T cell; conditions: at concentrations in the range obtained by targeted delivery; cited from earlier work
BEAS-2B epithelial cells = test: IP-10/RANTES production in BEAS-2B cells exposed to HRV-16; format: cell-based; conditions: 48 hr
Protocol: Cells of the BEAS-2B epithelial cell line were preincubated for either 6 hr or 24 hr with varying concentrations of HCQ. Cells were then exposed to human rhinovirus type 16 (HRV-16) which was left on the cells in the presence and absence of HCQ at the concentrations indicated for 48 hr. The data is depicted in Table 2 and FIG. 13.

[9] = conventional oral doses 4-6 mg/kg/day, after 3 months therapy, two clinical trials; cited from earlier work
[10] = test system: Primary Human Epithelial Cells (tonsillar); test: IP-10/RANTES production in primary epithelial cells exposed to HRV-16; format: cell-based
Protocol: Primary cultures of harvested human tonsillar epithelial cells were preincubated for 24 hr with 50 microM HCQ. The cells were then exposed to human rhinovirus type 16 (HRV-16) which was left on the cells in the presence and absence of HCQ. Medium was recovered at two different time post infection (24 hr viral incubation and 48 hr viral incubation) and assayed for IP-10 and RANTES. The data is depicted in Table 1 below and in FIG. 5.

[11] = test system: human tracheal epithelial cells; test: Pro-inflammatory mRNA in tracheal epithelial cultures infected with RV16, RT-PCR; format: cell-based; conditions: 50 microM HCQ, RV16 infection
Protocol: Differentiated cultures of human tracheal cells grown at an air liquid interface were pre-incubated for 12h with 50 microM HCQ prior to 12 h infection with human rhinovirus type 16 (HRV-16). Twelve hours after removal of virus, levels of mRNA for RANTES, ICAM-1, IL-1beta, TNF-alpha and IL-6 were quantified using multiplex two-step (TaqMan) RT-PCR. The results are depicted in FIGS. 6-10.
(§2) FIG. 6 graphically depicts the effects of HCQ on the release of RANTES (regulated on activation normal T-cell expressed and secreted) in cultured human tracheal epithelial cells. In the figure, RV16-p3 refers to the rhinovirus strain. Human tracheal epithelial cells were cultured for 14 days in serum-free growth media. On day 14, the cultures were divided into four groups. Two groups were pre-treated for 6 hours with HCQ (final concentration 50 microM) in media administered via the basolateral side. Then RV-16-p3 at a tissue culture infectious dose (TCID50) of 10^6/ml was added to one of groups receiving HCQ and one of thgroups not pretreated with HCQ. Phosphate buffered saline (PBS) was added to the other two groups, creating four conditions: media alone (control), HCQ alone, RV-16-p3 alone and RV-16-p3+HCQ. After six hours, the experimental suspensions were removed and the cells were washed three times with PBS. Cells were allowed to recover for 24h and then the mucosal surfaces of the culture inserts were flushed with 500 microL of PBS and the flushings were retained.
The filters containing the cell sheets were cut in half and placed in RLT buffer (Rneasy lysis buffer) or fixed in 10% buffered formalin prior to their preparation for fluorescence in situ hybridization (FISH) and gene expression analysis as described in detail elsewhere (Lopez-Souza N, et al., Resistance of differentiated human airway epithelium to infection by rhinovirus, Am J Physiol Lung Cell Mol Physiol, 2004;286:L373-81). Levels of mRNA for RANTES were determined in cell lysates using a two-step method of gene transcript profiling in which multiplex RT-PCR is combined with individual gene quantification via real-time PCR on generated cDNA product.
as §2, with “FIG. 7” for “FIG. 6”, “the upregulation” for “the release”, “of for intercellular adhision molecule 1 (ICAM-1)” for “of RANTES (regulated on activation normal T-cell expressed and secreted)”, “strain. ICAM refers to intracellular adhesion molecule 1.” for “strain.”, “of the groups” for “of thgroups”
FIG. 8 graphically depicts the effects of HCQ on the release of IL-1beta and TNF-alpha in cultured human tracheal epithelial cells. In the figure, RV16-p3 refers to the rhinovirus strain. IL-1 beta refers to Interleukin-1 beta. […]

leukocytes = conditions: ex vivo and in vitro experiments; cited from earlier work
[12] = rats, intravenous, 10 mg/kg/day

## CCN(CCO)CCCC(C)Nc1ccnc2cc(Cl)ccc12 (centres unmarked) [HCQ, hydroxychloroquine]
Human eosinophils [1]
  eosinophil survival: actively shortens eosinophil survival, to a much greater extent than a comparative dose of dexamethasone
[2]
  onset of action: 3-4 months
[3]
  treatment time before therapeutic effect begins: 24-26 weeks
Human eosinophils [4]
  HCQ concentration at which eosinophil degranulation is inhibited: > 100 µM
Human eosinophils [5]
  HCQ concentration at which IL-5 or PAF induced eosinophil superoxide is inhibited: at least 0.5 mM and ≥ 200 mcg/ml
[6]
  peak whole blood concentrations: less than 3 mcg/ml
[6]; 5 mg/kg/day
  AUC(0-inf): 24200 ng·h/mL
  Cmax: 1200 ng/mL
  AUC(0-t): 8160 ng·h/mL
  half-life: 20.8 h
  Tmax: 0.5 h
  Vd: 9.1 L/kg
  clearance: 5 mL/min/kg
[6]; 10 mg/kg/day
  AUC(0-inf): 82100 ng·h/mL
  Cmax: 2700 ng/mL
  AUC(0-t): 30900 ng·h/mL
  half-life: 35 h
  Tmax: 0.5 h
  Vd: 6.1 L/kg
  clearance: 1.67 mL/min/kg
[7]; rats, intravenous, 5 mg/kg/day
  Tmax: 0.5 h
  Vd: 11.1 L/kg
  clearance: 20 mL/min/kg
  half-life: 7.5 h
  AUC(0-inf): 6560 ng·h/mL
  Cmax: 1020 ng/mL
  AUC(0-t): 4050 ng·h/mL
[7]; [12]
  Tmax: 0.5 h
  Vd: 11.2 L/kg
  clearance: 21.7 mL/min/kg
  half-life: 7.4 h
  AUC(0-inf): 11000 ng·h/mL
  Cmax: 1740 ng/mL
  AUC(0-t): 7220 ng·h/mL
[7]; rats and dogs, intravenous, versus concentrations needed for in vitro effects
  peak concentrations as fraction of those required: 1/100
[7]; rats, intravenous 10 mg/kg
  peak serum concentrations: 2 µg/mL
[8]
  neutrophil and macrophage superoxide release, macrophage release of TNF-alpha, IL-6, Interferon-gamma and T cell activation: inhibited
BEAS-2B epithelial cells; HRV-16 + 0.01 mM HCQ
  IP-10: 6 hrs preincubation: 3084 pg/mL
  IP-10: 24 hrs preincubation: 2506 pg/mL
  RANTES: 6 hrs preincubation: 3326 pg/mL
BEAS-2B epithelial cells; HRV-16 + 0.1 mM HCQ
  IP-10: 6 hrs preincubation: 2914 pg/mL
  IP-10: 24 hrs preincubation: 1814 pg/mL
  RANTES: 6 hrs preincubation: 3128 pg/mL
BEAS-2B epithelial cells; HRV-16 + 1 mM HCQ
  IP-10: 6 hrs preincubation: 3045 pg/mL
  IP-10: 24 hrs preincubation: 2098 pg/mL
  RANTES: 6 hrs preincubation: 1994 pg/mL
BEAS-2B epithelial cells; HRV-16 + 50 mM HCQ
  IP-10: 6 hrs preincubation: 31 pg/mL
  IP-10: 24 hrs preincubation: 31 pg/mL
  RANTES: 6 hrs preincubation: 0 pg/mL
[9]
  therapeutic benefit in IBD: in neither was a consistent therapeutic benefit evident
[10]; HRV-16 + 50 microM HCQ, 24
  IP-10: hrs of preincubation 24: 31 pg/mL
[10]; HRV-16 + 50 microM HCQ, 48
  IP-10: hrs of preincubation 48: 112 pg/mL
[10]; HRV-16 + HCQ, 48
  RANTES: hrs of preincubation 48: 509 pg/mL
[11]
  release of IL-1beta: rapidly block
  release of IL-6: rapidly block
  release of IL-8: rapidly block
  release of TNF-alpha: rapidly block
  up-regulation of ICAM-1: rapidly block
leukocytes
  incubation time to effect on leukocytes: less than 1 hour
